Reference: US12728104B2, “Therapeutic methods for preventing tumor metastasis and tumor recurrence” (LUNELLA BIOTECH, INC., priority 2020, dated 2026)
“Also recorded” adds a separate entry of the source.

Columns and labels:
MDA-MB-231 metastasis = test: Metastasis assay, MDA-MB-231 cells in the CAM assay (qPCR for Human Alu sequences in lower CAM); format: in vivo
Experimental: MDA-MB-231 cells and the CAM assay in chicken eggs were used to quantitatively measure spontaneous tumor mestastasis. An inoculum of 1×10^6 MDA-MB-231 cells was added onto the CAM of each egg (on day E9) and then eggs were then randomized into groups. On day E10, tumors were detectable and they were then treated daily for 8 days with vehicle alone (1% DMSO in PBS) or the four mitochondrial inhibitors. After 8 days of drug administration, the lower CAM was collected to evaluate the number of metastatic cells, as analyzed by qPCR with specific primers for Human Alu sequences. […] The same procedure may be used to evaluate the anti-metastasis and anti-recurrence effects of other mitochondrial inhibitors.
(§1) a) Preparation of Chicken Embryos. Fertilized White Leghorn eggs were incubated at 37.5° C. with 50% relative humidity for 9 days. At that moment (E9), the chorioallantoic membrane (CAM) was dropped down by drilling a small hole through the eggshell into the air sac, and a 1 cm^2 window was cut in the eggshell above the CAM (19-23).
b) Amplification and Grafting of Tumor Cells. The MDA-MB-231 tumor cell line was cultivated in DMEM medium supplemented with 10% FBS and 1% penicillin/streptomycin. On day E9, cells were detached with trypsin, washed with complete medium and suspended in graft medium. An inoculum of 1×10^6 cells was added onto the CAM of each egg (E9) and then eggs were randomized into groups (19-23).
d) Metastasis Assays. On day E18, a 1 cm^2 portion of the lower CAM was collected to evaluate the number of metastatic cells in 8 samples per group (n=8). Genomic DNA was extracted from the CAM (commercial kit) and analyzed by qPCR with specific primers for Human Alu sequences. Calculation of Cq for each sample, mean Cq and relative amounts of metastases for each group are directly managed by the Bio-Rad® CFX Maestro software. A one-way ANOVA analysis with post-tests was performed on all the data (19-23).

chick embryo = test: Embryo tolerability assay (chick embryo toxicity); format: in vivo; conditions: for Alive / Dead: number of embryos
Experimental: a) Preparation of Chicken Embryos. […] At that moment (E9), the chorioallantoic membrane (CAM) was dropped down by drilling a small hole through the eggshell into the air sac, and a 1 cm^2 window was cut in the eggshell above the CAM (19-23).
e) Embryo Tolerability Assay: Before each administration, the treatment tolerability was evaluated by scoring the number of dead embryos.

MDA-MB-231 tumor growth = test: Tumor growth assay, MDA-MB-231 cells on the chorio-allantoic membrane (CAM) in chicken eggs; format: in vivo, human; conditions: treated daily for 8 days
Experimental: To experimentally evaluate their functional effects in vivo, the inventors used MDA-MB-231 cells and the well-established chorio-allantoic membrane (CAM) assay in chicken eggs, to quantitatively measure tumor growth and metastasis. An inoculum of 1×10^6 MDA-MB-231 cells was added onto the CAM of each egg (day E9) and then eggs were randomized into groups. On day E10, tumors were detectable and they were then treated daily for 8 days with vehicle alone (1% DMSO in PBS) or the three Mitoriboscin compounds. In parallel, the inventors also evaluated the activity of another mitochondrial inhibitor, namely butene-1,4-bis-triphenyl-phosphonium (Bis-TPP), which was identified as an inhibitor of 3D-mammosphere formation in MCF7 cells, with an IC-50 of less than 0.5 μM.
After 8 days of drug administration (on day E18), all tumors were weighed, and the lower CAM was collected to evaluate the number of metastatic cells, as analyzed by qPCR with specific primers for Human Alu sequences.
as §1
b) Amplification and Grafting of Tumor Cells. […]

MDA-MB-231 cells = conditions: cited from earlier work
MCF7 cells = conditions: cited from earlier work
[1] = system: CSCs in cell lines derived from 8 different cancer types; conditions: cell lines from 8 cancer types incl. MCF7, T47D, MDA-MB-231, MCF10.DCIS.COM; cited from earlier work

O[C@@H]1[C@H](NCc2ccccc2)CCC[C@H]1Oc1ccccc1Oc1ccc(Cl)cc1 [23/G4]
effectiveness in CAM assay (MDA-MB-231 metastasis; concentration of 0.5 mM): minimally effective
inhibition of metastasis (MDA-MB-231 metastasis; higher concentrations 0.75 mM, 1 mM, 2 mM, CAM assay): 70-75%
% Alive (chick embryo; 0.5 mM): 70%
% Dead (chick embryo; 0.5 mM): 30%
Alive (chick embryo; 0.5 mM): 7
Dead (chick embryo; 0.5 mM): 3
% Alive (chick embryo; 0.75 mM): 71.43%
% Dead (chick embryo; 0.75 mM): 28.57%
Alive (chick embryo; 0.75 mM): 10
Dead (chick embryo; 0.75 mM): 4
% Alive (chick embryo; 1 mM): 80%
% Dead (chick embryo; 1 mM): 20%
Alive (chick embryo; 1 mM): 12
Dead (chick embryo; 1 mM): 3
% Alive (chick embryo; 2 mM): 66.67%
% Dead (chick embryo; 2 mM): 33.33%
Alive (chick embryo; 2 mM): 10
Dead (chick embryo; 2 mM): 5
effect on MDA-MB-231 tumor growth (MDA-MB-231 tumor growth): minor effects
blocking of cell migration, active concentration range (MDA-MB-231 cells): low micro-molar range
inhibition of 3D-mammosphere formation, active concentration range (MCF7 cells): low micro-molar range

CC[C@H]1OC(=O)[C@H](C)[C@@H](O[C@H]2C[C@@](C)(OC)[C@@H](O)[C@H](C)O2)[C@H](C)[C@@H](O[C@@H]2O[C@H](C)C[C@H](N(C)C)[C@H]2O)[C@](C)(O)C[C@@H](C)CN(C)[C@H](C)[C@@H](O)[C@]1(C)O [Azithromycin]
inhibition of anchorage-independent propagation of CSCs [1]: effectively inhibit

C(=CC[P+](c1ccccc1)(c1ccccc1)c1ccccc1)C[P+](c1ccccc1)(c1ccccc1)c1ccccc1 [Bis-TPP, butene-1,4-bis-triphenyl-phosphonium]
effect on MDA-MB-231 cancer metastasis (MDA-MB-231 metastasis; CAM assay in chicken eggs, treated daily for 8 days): functional prevention of cancer metastasis; also recorded: significantly prevented metastasis
% Alive (chick embryo; 0.5 mM): 58.33%
% Dead (chick embryo; 0.5 mM): 41.67%
Alive (chick embryo; 0.5 mM): 7
Dead (chick embryo; 0.5 mM): 5
IC50 (MCF7 cells; read-out: IC-50, inhibition of 3D-mammosphere formation): < 500 nM
